Laboratory results published in patent US8961937B2 (Korea Atomic Energy Research Institute, priority 2012, dated 2015).
“Also recorded” adds a separate entry of the source.

Assays:
Aβ40 aggregates [1] = target: T1, Aβ40 aggregates (Homo sapiens, UniProt P05067); assay: Apparent binding constant (Kd) by fluorescence titration with aggregated Aβ40 peptide; details: 10 μM aggregated Aβ40 peptide, PBS, N = 3; read-out: Kd (mean ± SD)
T1 construct: agglomerated Aβ40 peptide (10 μM, 35° C., agglomerated in PBS buffer for 3 days.)
T1 sequence (P05067 672-711 limits assumed): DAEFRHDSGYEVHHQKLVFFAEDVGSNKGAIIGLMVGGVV
Protocol: Apparent binding constants (Kd) of the nine compounds were measured by using 10 μM aggregated Aβ40 peptide. Fluorescence intensity of respective probes of […], 0.5, 1, […], 5, and 10 μM dissolved in PBS and fluorescence intensity of a mixture with aggregates Aβ peptide were measured. […] Theoretically, a preferable fluorescence probe for Aβ aggregates should have high fluorescence reactivity and binding affinity.

[2] = system: Aβ aggregates of brain tissues of an AD mouse; assay: Fluorescence staining of brain sections of transgenic AD mouse (APP/PS1); details: for staining of Aβ aggregates in brain section of transgenic AD mouse: 15-month aged APP/PS1 mouse brain section; for staining of brain tissue of control group mouse: control group mouse brain section
Protocol: In order to evaluate whether 2-styrylpyridazine-3(2H)-one-based compound 14 can stain beta amyloid aggregates of brain tissues of an AD mouse, compound 14 was tested in a brain section of an 15-month aged transgenic AD mouse (APP/PS 1) model.

Aβ40 aggregates [3] = target: T1, Aβ40 aggregates; assay: In vitro fluorescence measurement before and after mixing with agglomerated Aβ40 peptide; type: binding
[4] = target: T2, intracellular Aβ aggregates of a SHSY5Y neuroblastoma cell (Homo sapiens, UniProt P05067); assay: Fluorescence imaging of intracellular Aβ aggregates in SHSY5Y cell extract; type: cell-based; details: for fluorescent staining of extract of Aβ42-added SHSY5Y cells: cell cultured with unlabelled Aβ42, sonicated with SDS, homogenate reacted with 10 μM probe for 10 minutes; for fluorescent staining of extract of SHSY5Y cells grown without Aβ: culture without Aβ42 (negative control tissue)
T2 construct: a cell having unlabelled Aβ42 added thereto was sonicated with SDS; host or cells: exogenous peptide added to the SHSY5Y neuroblastoma cell culture
T2 sequence (P05067 672-713 limits assumed): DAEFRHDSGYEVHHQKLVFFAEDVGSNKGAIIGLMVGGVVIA
Protocol: Fluorescence imaging of compound 14 was performed on intracellular Aβ aggregates of a SHSY5Y neuroblastoma cell. In order to measure intracellular uptake and aggregation of Aβ, 1 μM of Aβ42 (FITC-Aβ42) labelled with fluorescein isothiocyanate was added, and SHSY5Y cell was cultivated 3 days and imaged with fluorescence microscope. […] The conventional research reported that, after extracellular soluble Aβ is taken up, Aβ42 aggregates (>200 kDa) having a high molecular weight is formed. In order to determine whether the compound 14 is used as a fluorescence probe component for detecting intracellular Aβ aggregates, a cell having unlabelled Aβ42 added thereto was sonicated with SDS, and the homogenate was reacted with 10 μM of compound 14 for 10 minutes.

Compound | Kd (Aβ40 aggregates [1]) [nM] | staining of Aβ aggregates in brain section of transgenic AD mouse [2] | staining of brain tissue of control group mouse [2] | λem (Aβ40 aggregates [3]; emission wavelength, 10 μM in PBS) [nm] | λex (Aβ40 aggregates [3]; excitation wavelength, 10 μM in PBS) [nm] | Fold Increase (FAβ/F0) (Aβ40 aggregates [3]; fluorescence emission intensity at λem, 10 μM compound and 10 μM Aβ40 aggregates) | fluorescent staining of extract of Aβ42-added SHSY5Y cells [4] | fluorescent staining of extract of SHSY5Y cells grown without Aβ [4]
CN(C)c1ccc(/C=C/n2ncc(Cl)c(Cl)c2=O)cc1 [Compound 14] | 1840 | clearly stained | not stained | 636 | 430 | 40.84 | Fluorescence precipitate was obtained; also recorded: clearly stained | did not have fluorescent staining
Cc1ccc2c(c1)sc(-c1ccc(N(C)C)cc1)[n+]2C.[Cl-] [thio-flavine T, reference compound] | – | stained | not stained | – | – | – | labelled pattern was identical to a pattern observed by using thio-flavine T | did not have fluorescent staining
